Source: ChEMBL document CHEMBL2074200, “Reversal of P-glycoprotein-mediated MDR by 5,7,3',4',5'-pentamethoxyflavone and SAR” (Biochem Biophys Res Commun, 2004)

Target: ATP-dependent translocase ABCB1 (Homo sapiens, UniProt P08183)
Assay: TP_TRANSPORTER: increase in Rhodamine 123 intracellular accumulation in AML-2/D100 cells
Format: functional, cell-based

ATP-dependent translocase ABCB1, sequence (P08183 whole entry): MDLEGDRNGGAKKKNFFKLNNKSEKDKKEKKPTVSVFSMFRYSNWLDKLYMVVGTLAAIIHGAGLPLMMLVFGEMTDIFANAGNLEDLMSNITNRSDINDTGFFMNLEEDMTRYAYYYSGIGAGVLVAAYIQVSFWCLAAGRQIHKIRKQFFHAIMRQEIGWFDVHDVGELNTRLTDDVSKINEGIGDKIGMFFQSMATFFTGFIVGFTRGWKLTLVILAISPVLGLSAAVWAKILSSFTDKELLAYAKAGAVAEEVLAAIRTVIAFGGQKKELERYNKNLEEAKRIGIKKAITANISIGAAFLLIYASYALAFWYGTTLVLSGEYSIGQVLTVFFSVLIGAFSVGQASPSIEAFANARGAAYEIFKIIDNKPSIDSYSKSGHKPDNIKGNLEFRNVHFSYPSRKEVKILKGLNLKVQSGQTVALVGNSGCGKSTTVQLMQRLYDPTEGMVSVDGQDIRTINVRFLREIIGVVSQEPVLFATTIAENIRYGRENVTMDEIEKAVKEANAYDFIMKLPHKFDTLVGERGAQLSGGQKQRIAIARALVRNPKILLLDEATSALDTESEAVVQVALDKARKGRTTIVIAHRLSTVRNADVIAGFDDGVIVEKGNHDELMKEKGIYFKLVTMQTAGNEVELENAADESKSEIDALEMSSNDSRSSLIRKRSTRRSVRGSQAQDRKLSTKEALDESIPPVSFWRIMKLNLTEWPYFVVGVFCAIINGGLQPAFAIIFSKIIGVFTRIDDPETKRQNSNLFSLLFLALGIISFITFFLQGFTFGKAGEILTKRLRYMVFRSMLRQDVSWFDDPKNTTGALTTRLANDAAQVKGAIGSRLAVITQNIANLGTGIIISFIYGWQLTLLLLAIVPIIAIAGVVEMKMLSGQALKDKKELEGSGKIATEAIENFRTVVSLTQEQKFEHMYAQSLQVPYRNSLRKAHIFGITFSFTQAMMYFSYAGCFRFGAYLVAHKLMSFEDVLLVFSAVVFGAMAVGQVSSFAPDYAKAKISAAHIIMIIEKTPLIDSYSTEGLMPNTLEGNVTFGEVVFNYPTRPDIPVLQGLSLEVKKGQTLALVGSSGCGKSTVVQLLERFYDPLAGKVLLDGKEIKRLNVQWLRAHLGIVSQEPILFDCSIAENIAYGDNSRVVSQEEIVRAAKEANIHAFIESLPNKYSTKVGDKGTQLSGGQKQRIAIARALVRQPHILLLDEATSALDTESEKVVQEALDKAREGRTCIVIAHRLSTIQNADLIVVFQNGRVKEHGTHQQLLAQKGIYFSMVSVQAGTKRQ

COc1cc(OC)c2c(=O)cc(-c3cc(OC)c(OC)c(OC)c3)oc2c1
Activity: inhibitor [+]
